Laboratory results published in patent publication US20030078251A1, “Benzoxazepinones and their use as squalene synthase inhibitors” (priority 2000, published 2003).

| melting point | Compound |
| --- | --- |
| 179.2 to 180.2 °C | COc1cccc([C@H]2O[C@H](CC(=O)Nc3cc(Cl)cc4cc(C(=O)O)oc34)C(=O)N(CC(C)(C)CO)c3ccc(Cl)cc32)c1OC [Example 165, 7-[[[(3R,5S)-7-Chloro-5-(2,3-dimethoxyphenyl)-1-(3-hydroxy-2,2-dimethylpropyl)-2-oxo-1,2,3,5-tetrahydro-5,1-benzoxazepin-3-yl]acetyl]amino]-5-chloro-1-benzofuran-2-carboxylic acid] |
| 193 to 195.5 °C | COc1cccc([C@H]2O[C@H](CC(=O)Nc3ccc4oc(C(=O)O)c(OCC(=O)O)c4c3)C(=O)N(CC(C)(C)CO)c3ccc(Cl)cc32)c1OC [Example 155, 5-[[[(3R,5S)-7-chloro-5-(2,3-dimethoxyphenyl)-1-(3-hydroxy-2,2-dimethylpropyl)-2-oxo-1,2,3,5-tetrahydro-4,1-benzoxazepin-3-yl]acetyl]amino]-3-[(carboxymethyl)oxy]-1-benzofuran-2-carboxylic acid] |
| 123 to 125 °C | COc1cccc([C@H]2O[C@H](CC(=O)Nc3ccc(F)c(CCC(=O)O)c3)C(=O)N(CC(C)(C)CO)c3ccc(Cl)cc32)c1OC [Example 134, 3-[5-[[[(3R,5S)-7-Chloro-5-(2,3-dimethoxyphenyl)-1-(3-hydroxy-2,2-dimethylpropyl)-2-oxo-1,2,3,5-tetrahydro-4,1-benzoxazepin-3-yl]acetyl]amino]-2-fluorophenyl]propionic Acid] |
| 192 to 193 °C (dec.) | COc1cccc([C@H]2O[C@H](CC(=O)Nc3ccc(OCC(=O)O)cc3F)C(=O)N(CC(C)(C)CO)c3ccc(Cl)cc32)c1OC [Example 136] |
| 175.4 to 175.5 °C | COc1cccc([C@H]2O[C@H](CC(=O)Nc3cc(OC)c4oc(C(=O)O)cc4c3)C(=O)N(CC(C)(C)CO)c3ccc(Cl)cc32)c1OC [Example 149, 5-[[[(3R,5S)-5-(2,3-dimethoxyphenyl)-7-chloro-1-(3-hydroxy-2,2-dimethylpropyl)-2-oxo-1,2,3,5-tetrahydro-4,1-benzoxazepin-3-yl]acetyl]amino]-7-methoxy-1-benzofran-2-carboxylic acid] |
| 207 to 209 °C | COc1cccc([C@H]2O[C@H](CC(=O)Nc3ccc4oc(CCC(=O)O)cc4c3)C(=O)N(CC(C)(C)CO)c3ccc(Cl)cc32)c1OC [Example 159, 3-[5-[[[(3R,5S)-7-Chloro-5-(2,3-dimethoxyphenyl)-1-(3-hydroxy-2,2-dimethylpropyl)-2-oxo-1,2,3,5-tetrahydro-4,1-benzoxazepin-3-yl]acetyl]amino]-1-benzofuran-2-yl]propanoic acid] |
| 241 to 242.2 °C | COc1cccc([C@H]2O[C@H](CC(=O)Nc3ncc(C(=O)O)s3)C(=O)N(CC(C)(C)CO)c3ccc(Cl)cc32)c1OC [Example 141, 2-[[[(3R,5S)-7-Chloro-5-(2,3-dimethoxyphenyl)-1-(3-hydroxy-2,2-dimethylpropyl)-2-oxo-1,2,3,5-tetrahydro-4,1-benzoxazepin-3-yl]acetyl]amino]-1,3-thiazole-5-carboxylic acid] |
| 180.7 to 182 °C | COc1cccc([C@H]2O[C@H](CC(=O)Nc3cc(C)c4oc(C(=O)O)cc4c3)C(=O)N(CC(C)(C)CO)c3ccc(Cl)cc32)c1OC [Example 161, 5-[[[(3R,5S)-7-Chloro-5-(2,3-dimethoxyphenyl)-1-(3-hydroxy-2,2-dimethylpropyl)-2-oxo-1,2,3,5-tetrahydro-4,1-benzoxazepin-3-yl]acetyl]amino]-7-methyl-1-benzofuran-2-carboxylic acid] |
| 136 to 138 °C | COc1ccc(CCCCC(=O)O)cc1NC(=O)C[C@H]1O[C@H](c2cccc(OC)c2OC)c2cc(Cl)ccc2N(CC(C)(C)CO)C1=O [Example 139, 5-[3-[[2-[(3R,5S)-7-Chloro-5-(2,3-dimethoxyphenyl)-1-(3-hydroxy-2,2-dimethylpropyl)-2-oxo-1,2,3,5-tetrahydro-4,1-benzoxazepin-3-yl]acetyl]amino]-4-methoxyphenyl]pentanoic acid] |
| 173 to 174 °C | COc1ccc(C(C)(C)CCC(=O)O)cc1NC(=O)C[C@H]1O[C@H](c2cccc(OC)c2OC)c2cc(Cl)ccc2N(CC(C)(C)CO)C1=O [Example 138, 4-[3-[[2-[(3R,5S)-7-Chloro-5-(2,3-dimethoxyphenyl)-1-(3-hydroxy-2,2-dimethylpropyl)-2-oxo-1,2,3,5-tetrahydro-4,1-benzoxazepin-3-yl]acetyl]amino]-4-methoxyphenyl]-4,4-dimethylbutanoic acid] |
| 251 to 252 °C | COc1cccc([C@H]2O[C@H](CC(=O)Nc3nc(C)c(C(=O)O)s3)C(=O)N(CC(C)(C)CO)c3ccc(Cl)cc32)c1OC [Example 145, 2-[[[(3R,5S)-7-Chloro-5-(2,3-dimethoxyphenyl)-1-(3-hydroxy-2,2-dimethylpropyl)-2-oxo-1,2,3,5-tetrahydro-4,1-benzoxazepin-3-yl]acetyl]amino]-4-methyl-1,3-thiazole-5-carboxylic acid] |

The next lines start with the molecule.

| Compound | melting point |
| --- | --- |
| COc1cccc([C@H]2O[C@H](CC(=O)Nc3cc(CCCCC(=O)O)ccc3F)C(=O)N(CC(C)(C)CO)c3ccc(Cl)cc32)c1OC [Example 108, 5-[3-[[[(3R,5S)-7-Chloro-5-(2,3-dimethoxyphenyl)-1-(3-hydroxy-2,2-dimethylpropyl)-2-oxo-1,2,3,5-tetrahydro-4,1-benzoxazepin-3-yl]acetyl]amino]-4-fluorophenyl]pentanoic acid] | 115 to 118 °C |
| COc1cccc([C@H]2O[C@H](CC(=O)NCCCOc3cccc(C(=O)O)c3)C(=O)N(CC(C)(C)CO)c3ccc(Cl)cc32)c1OC [Example 100, 3-[3-[[(3R,5S)-7-Chloro-5-(2,3-dimethoxyphenyl)-1-(3-hydroxy-2,2-dimethylpropyl)-2-oxo-1,2,3,5-tetrahydro-4,1-benzoxazepin-3-yl]acetyl]aminopropyloxy]benzoic acid] | 132 to 134 °C |
| COc1cccc([C@H]2O[C@H](CC(=O)Nc3cc(C(=O)O)ccc3F)C(=O)N(CC(C)(C)COC(C)=O)c3ccc(Cl)cc32)c1OC [Example 107, 3-[[[(3R,5S)-1-(3-Acetoxy-2,2-dimethylpropyl)-7-chloro-5-(2,3-dimethoxyphenyl)-2-oxo-1,2,3,5-tetrahydro-4,1-benzoxazepin-3-yl]acetyl]amino]-4-fluorobenzoic acid] | 146 to 149 °C |
| CCCCS(=O)(=O)NC(=O)C[C@H]1O[C@H](c2cccc(OC)c2OC)c2cc(Cl)ccc2N(CC(C)(C)CO)C1=O [Example 4, (3R,5S)-N-butanesulfonyl-7-chloro-5-(2,3-dimethoxyphenyl)-1-(3-hydroxy-2,2-dimethylpropyl)-2-oxo-1,2,3,5-tetrahydro-4,1-benzoxazepine-3-acetamide] | 123 to 125 °C |
| COc1cccc([C@H]2O[C@H](CC(=O)Nc3cc(CCC(=O)O)ccc3OC(C)C)C(=O)N(CC(C)(C)COC(C)=O)c3ccc(Cl)cc32)c1OC [Example 52, 3-[3-[[[(3R,5S)-1-(3-acetoxy-2,2-dimethylpropyl)-7-chloro-5-(2,3-dimethoxyphenyl)-2-oxo-1,2,3,5-tetrahydro-4,1-benzoxazepin-3-yl]acetyl]amino]-4-isopropoxyphenyl]propionic Acid] | 101 to 103 °C |
| COc1cccc([C@H]2O[C@H](CC(=O)Nc3cccc(C(=O)O)c3C)C(=O)N(CC(C)(C)CO)c3ccc(Cl)cc32)c1OC [Example 43, 3-[[[(3R,5S)-7-chloro-5-(2,3-dimethoxyphenyl)-1-(3-hydoroxy-2-dimethylpropyl)-2-oxo-1,2,3,5-tetrahydro-4,1-benzoxazepin-3-yl]acetyl]amino]-2-methylbenzoic acid] | 165 to 168 °C |
| COc1cccc([C@H]2O[C@H](CC(=O)Nc3ccc(OC(F)(F)C(=O)O)cc3)C(=O)N(CC(C)(C)CO)c3ccc(Cl)cc32)c1OC [Example 132, 2-[4-[[[(3R,5S)-7-Chloro-5-(2,3-dimethoxyphenyl)-1-(3-hydroxy-2,2-dimethylpropyl)-2-oxo-1,2,3,5-tetrahydro-4,1-benzoxazepin-3-yl]acetyl]amino]phenyloxy]-2,2-difluoroacetic acid] | 149 to 150 °C |
| COc1cccc([C@H]2O[C@H](CC(=O)Nc3ccc(C(=O)O)cc3C)C(=O)N(CC(C)(C)CO)c3ccc(Cl)cc32)c1OC [Example 48, 4-[[(3R,5S)-7-chloro-5-(2,3-dimethoxyphenyl)-1-(3-hydroxy-2,2-dimethylpropyl)-2-oxo-1,2,3,5-tetrahydro-4,1-benzoxazepin-3-yl]acetyl]amino-3-methylbenzoic acid] | 275 to 276 °C |
| COc1cccc([C@H]2O[C@H](CC(=O)NCCCOc3ccc(CC(=O)O)cc3)C(=O)N(CC(C)(C)COC(C)=O)c3ccc(Cl)cc32)c1OC [Example 97, 4-[3-[[(3R,5S)-1-(3-Acetoxy-2,2-dimethylpropyl)-7-chloro-5-(2,3-dimethoxyphenyl)-2-oxo-1,2,3,5-tetrahydro-4,1-benzoxazepin-3-yl]acetyl]aminopropyloxy]phenylacetic acid] | 163 to 164 °C |
| COc1cc(CCC(=O)O)cc(NC(=O)C[C@H]2O[C@H](c3cccc(OC)c3OC)c3cc(Cl)ccc3N(CC(C)(C)CO)C2=O)c1OC [Example 66, 3-[5-[[[(3R,5S)-7-chloro-5-(2,3-dimethoxyphenyl)-1-(3-hydroxy-2,2-dimethylpropyl)-2-oxo-1,2,3,5-tetrahydro-4,1-benzoxazepin-3-yl]acetyl]amino]-3,4-dimethoxyphenyl]propionic Acid] | 145 to 148 °C |
| CCOc1ccc(CCC(=O)O)cc1NC(=O)C[C@H]1O[C@H](c2cccc(OC)c2OC)c2cc(Cl)ccc2N(CC(C)(C)CO)C1=O [Example 49, 3-[3-[[[(3R,5S)-7-chloro-5-(2,3-dimethoxyphenyl)-1-(3-hydroxy-2,2-dimethylpropyl)-2-oxo-1,2,3,5-tetrahydro-4,1-benzoxazepin-3-yl]acetyl]amino]-4-ethoxyphenyl]propionic Acid] | 151 to 153 °C |
| COc1cccc([C@H]2O[C@H](CC(=O)NCc3ccc(C(=O)O)o3)C(=O)N(CC(C)(C)CO)c3ccc(Cl)cc32)c1OC [Example 29, 5-[[[[(3R,5S)-7-chloro-5-(2,3-dimethoxyphenyl)-1-(2,2-dimethyl-3-hydroxypropyl)-2-oxo-1,2,3,5-tetrahydro-4,1-benzoxazepin-3-yl]acetyl]amino]methyl]furan-2-carboxylic acid] | 128 to 131 °C |
